Results taken from article PMC3391414 (Journal of Agricultural and Food Chemistry, 2011).
“Also recorded” adds a separate entry of the source.

Legend:
UGT1A1 = molecular target: T1, UGT1A1 (Homo sapiens, UniProt P22309); assay: Glucuronidation by recombinant human UGT1A1
T1 sequence (P22309 26-533): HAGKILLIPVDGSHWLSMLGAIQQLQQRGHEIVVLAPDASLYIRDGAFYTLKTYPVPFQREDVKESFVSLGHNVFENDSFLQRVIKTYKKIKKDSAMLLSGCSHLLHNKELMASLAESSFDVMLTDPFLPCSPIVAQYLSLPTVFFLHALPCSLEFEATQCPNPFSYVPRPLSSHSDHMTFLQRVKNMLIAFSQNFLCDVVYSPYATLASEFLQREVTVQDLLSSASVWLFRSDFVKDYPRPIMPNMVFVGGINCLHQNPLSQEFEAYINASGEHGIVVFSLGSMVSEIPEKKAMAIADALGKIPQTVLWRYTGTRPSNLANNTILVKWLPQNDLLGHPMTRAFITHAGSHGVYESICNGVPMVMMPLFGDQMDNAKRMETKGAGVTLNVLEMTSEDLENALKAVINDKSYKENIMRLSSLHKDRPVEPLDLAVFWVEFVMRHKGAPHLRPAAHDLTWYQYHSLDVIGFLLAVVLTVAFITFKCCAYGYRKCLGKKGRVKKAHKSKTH

[1] = tested on: UGT 1A1, 1A3, 1A6, 1A7, 1A8, 1A9, 1A10 and 2B7; assay: Glucuronidation by the panel of 8 recombinant human UGT isoforms; conditions: substrate 10 μM
UGT1A9 = molecular target: T2, UGT1A9 (Homo sapiens, UniProt O60656); assay: Glucuronidation by recombinant human UGT1A9
T2 sequence (O60656 26-530): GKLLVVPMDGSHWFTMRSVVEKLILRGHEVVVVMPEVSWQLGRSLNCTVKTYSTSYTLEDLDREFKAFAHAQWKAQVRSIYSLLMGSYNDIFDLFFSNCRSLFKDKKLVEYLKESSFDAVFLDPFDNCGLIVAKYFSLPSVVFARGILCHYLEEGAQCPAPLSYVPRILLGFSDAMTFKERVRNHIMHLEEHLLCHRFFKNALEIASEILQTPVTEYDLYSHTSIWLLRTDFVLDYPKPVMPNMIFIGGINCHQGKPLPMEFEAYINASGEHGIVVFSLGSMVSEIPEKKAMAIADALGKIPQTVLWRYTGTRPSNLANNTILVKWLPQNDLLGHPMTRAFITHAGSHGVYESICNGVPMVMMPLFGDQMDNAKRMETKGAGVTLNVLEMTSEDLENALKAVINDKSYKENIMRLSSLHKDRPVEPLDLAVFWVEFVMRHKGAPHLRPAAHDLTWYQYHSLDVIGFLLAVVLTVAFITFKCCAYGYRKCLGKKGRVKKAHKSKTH

UGT1A3 = molecular target: T3, UGT1A3 (Homo sapiens, UniProt P35503); assay: Glucuronidation by recombinant human UGT1A3
T3 sequence (P35503 29-534): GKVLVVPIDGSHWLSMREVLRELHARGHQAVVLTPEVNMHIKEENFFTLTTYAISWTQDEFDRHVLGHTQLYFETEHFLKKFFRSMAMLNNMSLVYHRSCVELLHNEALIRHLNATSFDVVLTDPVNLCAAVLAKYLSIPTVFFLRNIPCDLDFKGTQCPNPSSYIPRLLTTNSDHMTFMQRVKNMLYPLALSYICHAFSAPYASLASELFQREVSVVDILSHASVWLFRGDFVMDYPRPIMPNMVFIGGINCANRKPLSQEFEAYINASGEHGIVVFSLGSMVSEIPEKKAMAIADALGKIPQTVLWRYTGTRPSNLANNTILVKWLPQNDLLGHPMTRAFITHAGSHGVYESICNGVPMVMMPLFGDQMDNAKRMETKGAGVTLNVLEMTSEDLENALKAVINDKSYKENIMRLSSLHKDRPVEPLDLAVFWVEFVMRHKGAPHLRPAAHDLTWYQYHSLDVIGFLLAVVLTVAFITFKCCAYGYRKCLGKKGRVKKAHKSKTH

**Q.** What does the source list for `O=c1c(O)c(-c2ccc(O)cc2)oc2ccccc12` [4'HFnol, 3,4’-dihydroxyflavone]?
**A.** Degree of regiospecificity (major glucuronide in bracket) (UGT1A1; UGT1A1, substrate 2.5 μM): No (3-O, 4’-O); Degree of regiospecificity (major glucuronide in bracket) (UGT1A1; UGT1A1, substrate 2.5 μM, listed as 4’HFnol): did not show any regiospecific preference; Degree of regiospecificity (major glucuronide in bracket) (UGT1A1; UGT1A1, substrate 10 μM): No (3-O, 4’-O); Degree of regiospecificity (major glucuronide in bracket) (UGT1A1; UGT1A1, substrate 10 μM, listed as 4’HFnol): no regiospecificity; also recorded: did not show any regiospecific preference; Glucuronidation and regiospecificity across the 8 UGT isoforms [1]: most isoforms showed dominant regiospecificity by glucuronidating almost only the 3-O position; Degree of regiospecificity (major glucuronide in bracket) (UGT1A9; UGT1A9, substrate 2.5 μM): Dominant (3-O); Degree of regiospecificity (major glucuronide in bracket) (UGT1A9; UGT1A9, substrate 10 μM): Dominant (3-O); Degree of regiospecificity (major glucuronide in bracket) (UGT1A3; UGT1A3, substrate 2.5 μM): Dominant (3-O); Degree of regiospecificity (major glucuronide in bracket) (UGT1A3; UGT1A3, substrate 10 μM): No (3-O, 4’-O); Degree of regiospecificity (major glucuronide in bracket) (UGT1A3; UGT1A3, substrate 10 μM, listed as 4’HFnol): no regiospecificity

**Q.** With `O=c1cc(-c2ccc(O)cc2)oc2cccc(O)c12` [5,4'DHF, 5,4’-dihydroxyflavone] as the compound, how does the “Degree of regiospecificity (major glucuronide in bracket)” value (“Degree of regiospecificity” for short) (UGT1A1; UGT1A1, substrate 2.5 μM) read?
**A.** The value was “Dominant (4’-O)”.

**Q.** And the “Degree of regiospecificity” value (UGT1A1; UGT1A1, substrate 2.5 μM, listed as 5,4’DHF)?
**A.** Its value is “dominant regiospecificity”.

**Q.** What about the “Degree of regiospecificity” value (UGT1A1; UGT1A1, substrate 10 μM) of the same compound?
**A.** The value was “Dominant (4’-O)”.

**Q.** And the “Degree of regiospecificity” value (UGT1A1; UGT1A1, substrate 10 μM, listed as 5,4’DHF)?
**A.** The value was “dominant regiospecificity”.

**Q.** What about the “Glucuronidation and regiospecificity across the 8 UGT isoforms” value [1] of the same compound?
**A.** Its value is 4’-O was the preferred position of glucuronidation in all cases.

**Q.** What about the “Degree of regiospecificity” value (UGT1A9; UGT1A9, substrate 2.5 μM) of the same compound?
**A.** Its value is “Dominant (4’-O)”.

**Q.** And the “Degree of regiospecificity” value (UGT1A9; UGT1A9, substrate 10 μM)?
**A.** Its value is “Dominant (4’-O)”.

**Q.** And the “Degree of regiospecificity” value (UGT1A9; UGT1A9, substrate 10 μM, listed as 5,4’DHF)?
**A.** The value was “dominant regiospecificity”.

**Q.** And the “Degree of regiospecificity” value (UGT1A3; UGT1A3, substrate 2.5 μM)?
**A.** The value was “Dominant (4’-O)”.

**Q.** What about the “Degree of regiospecificity” value (UGT1A3; UGT1A3, substrate 10 μM) of the same compound?
**A.** Its value is “Moderate (4’-O)”.

**Q.** And the “Degree of regiospecificity” value (UGT1A3; UGT1A3, substrate 10 μM, listed as 5,4’DHF)?
**A.** Its value is “moderate regiospecificity for 4’-O position”.

**Q.** What does the source list for `O=c1c(O)c(-c2ccccc2)oc2cc(O)cc(O)c12` [5,7DHFnol, 3,5,7-trihydroxyflavone]?
**A.** Degree of regiospecificity (major glucuronide in bracket) (UGT1A1; UGT1A1, substrate 2.5 μM): Weak (7-O); Degree of regiospecificity (major glucuronide in bracket) (UGT1A1; UGT1A1, substrate 10 μM): weakly preferred the glucuronidation of 7-O over 3-O position; also recorded: Weak (7-O); Degree of regiospecificity (major glucuronide in bracket) (UGT1A9; UGT1A9, substrate 2.5 μM): Weak (3-O); Degree of regiospecificity (major glucuronide in bracket) (UGT1A9; UGT1A9, substrate 10 μM): did not show any regiospecific preference for any position; also recorded: No (3-O, 7-O); Degree of regiospecificity (major glucuronide in bracket) (UGT1A9; UGT1A9, substrate 10 μM, listed as 5,7THFnol): 3-O and 7-O were glucuronidated at comparable rates; Degree of regiospecificity (major glucuronide in bracket) (UGT1A3; UGT1A3, substrate 2.5 μM): Dominant (7-O); Degree of regiospecificity (major glucuronide in bracket) (UGT1A3; UGT1A3, substrate 10 μM): dominantly regiospecific for 7-O; also recorded: Dominant (7-O)

**Q.** Which results are given for `O=c1cc(-c2ccc(O)cc2)oc2cc(O)ccc12` [7,4'DHF, 7,4’-dihydroxyflavone]?
**A.** Degree of regiospecificity (major glucuronide in bracket) (UGT1A1; UGT1A1, substrate 2.5 μM): Weak (7-O); Degree of regiospecificity (major glucuronide in bracket) (UGT1A1; UGT1A1, substrate 2.5 μM, listed as 7,4’DHF): weak; Degree of regiospecificity (major glucuronide in bracket) (UGT1A1; UGT1A1, substrate 10 μM): Moderate (7-O); Degree of regiospecificity (major glucuronide in bracket) (UGT1A1; UGT1A1, substrate 10 μM, listed as 7,4’DHF): moderate regiospecificity for glucuronidation of 7-O position; Glucuronidation and regiospecificity across the 8 UGT isoforms [1]: except UGT1A6, all metabolizing isoforms glucuronidated both hydroxyl groups at C-7 and C-4’ positions; Degree of regiospecificity (major glucuronide in bracket) (UGT1A9; UGT1A9, substrate 2.5 μM): Moderate (7-O); Degree of regiospecificity (major glucuronide in bracket) (UGT1A9; UGT1A9, substrate 10 μM): Moderate (7-O); Degree of regiospecificity (major glucuronide in bracket) (UGT1A9; UGT1A9, substrate 10 μM, listed as 7,4’DHF): moderate regiospecificity for glucuronidation of 7-O position; Degree of regiospecificity (major glucuronide in bracket) (UGT1A3; UGT1A3, substrate 2.5 μM): Dominant (7-O); Degree of regiospecificity (major glucuronide in bracket) (UGT1A3; UGT1A3, substrate 10 μM): Dominant (7-O); Degree of regiospecificity (major glucuronide in bracket) (UGT1A3; UGT1A3, substrate 10 μM, listed as 7,4’DHF): dominant regiospecificity for glucuronidation of 7-O position

**Q.** How did the “Glucuronidation and regiospecificity across the 8 UGT isoforms” value [1] turn out when `O=c1c(O)c(-c2ccccc2)oc2ccccc12` [Fnol, 3-hydroxyflavone] was run?
**A.** Its value is “could be metabolized by any of the 8 UGT isoforms tested”.
